Among the data in patent publication US10077241B2 (Janssen Pharmaceutica NV, priority 2014, dated 2018) are EC50 values, retold here.

SMILES strings stand for the structures.

In assay [1] the target is T1, TGR5 (STC1 cell line) (Mus musculus, UniProt Q80SS6).
T1 sequence (Q80SS6 1-329): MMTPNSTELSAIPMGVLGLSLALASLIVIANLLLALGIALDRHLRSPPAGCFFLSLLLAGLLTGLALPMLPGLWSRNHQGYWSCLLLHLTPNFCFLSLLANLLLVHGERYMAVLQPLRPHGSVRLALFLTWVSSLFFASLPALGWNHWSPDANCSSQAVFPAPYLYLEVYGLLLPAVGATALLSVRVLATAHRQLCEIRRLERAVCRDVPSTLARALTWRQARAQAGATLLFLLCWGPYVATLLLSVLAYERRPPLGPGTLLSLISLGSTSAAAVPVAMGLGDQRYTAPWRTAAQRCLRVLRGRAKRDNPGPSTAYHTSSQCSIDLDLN
Description: STC1 cAMP Agonist EC50 Determination.

Assay [2] concerns the target T2, TGR5 (NCI-H716 cell line) (Homo sapiens, UniProt Q8TDU6).
T2 sequence (Q8TDU6 1-330): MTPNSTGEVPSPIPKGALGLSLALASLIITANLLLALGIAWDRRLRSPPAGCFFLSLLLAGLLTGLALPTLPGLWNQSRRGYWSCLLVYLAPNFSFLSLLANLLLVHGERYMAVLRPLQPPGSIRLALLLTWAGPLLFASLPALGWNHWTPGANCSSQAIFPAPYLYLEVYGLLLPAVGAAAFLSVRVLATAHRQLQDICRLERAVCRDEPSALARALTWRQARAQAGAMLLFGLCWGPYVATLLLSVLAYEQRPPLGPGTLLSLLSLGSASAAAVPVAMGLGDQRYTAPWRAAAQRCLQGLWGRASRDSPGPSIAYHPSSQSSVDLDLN
In words: NCI-H716 cAMP Agonist EC50 Determination.

In the case of `COc1ccc(C2CCCc3nc(SCc4c(F)cc(C#N)cc4F)n(-c4ccc(F)cc4)c32)cc1OC` (stereo not drawn) [Example 64, 4-(((7-(3,4-dimethoxyphenyl)-1-(4-fluorophenyl)-4,5,6,7-tetrahydro-1H-benzo[d]imidazol-2-yl)thio)methyl)-3,5-difluorobenzonitrile], the figures for the EC50 in assay [1] and in assay [2] were 0.15 µM and 5.34 µM, respectively.

In the case of `COc1ccc(C2CCCc3nc(SCc4c(F)cc(C(=O)O)cc4F)n(-c4ccc(F)cc4)c32)cc1OC` (stereo not drawn) [Example 65, 4-(((7-(3,4-dimethoxyphenyl)-1-(4-fluorophenyl)-4,5,6,7-tetrahydro-1H-benzo[d]imidazol-2-yl)thi)methyl)-3,5-difluorobenzoic acid], the figures for the 50% effective concentration (EC50) in assay [1] and in assay [2] were 3.75 µM and over 50 µM, respectively.

Regarding `COCCOCCOCCOCCNC(=O)c1cc(F)c(CSc2nc3c(n2-c2ccc(F)cc2)C(c2ccc(OC)c(OC)c2)CCC3)c(F)c1` (stereo not drawn) [Example 66, 4-(((7-(3,4-dimethoxyphenyl)-1-(4-fluorophenyl)-4,5,6,7-tetrahydro-1H-benzo[d]imidazol-2-yl)thio)methyl)-3,5-difluoro-N-(2,5,8,11-tetraoxatridecan-13-yl)benzamide], the figures for the EC50 in assay [1] and in assay [2] were 0.9 µM and 2.4 µM, respectively.

For the compound `COc1ccc(C2CCCc3nc(SCc4c(F)cc(OCCCl)cc4F)n(-c4ccc(F)cc4)c32)cc1OC` (stereo not drawn) [Example 67, 2-((4-(2-chloroethoxy)-2,6-difluorobenzyl)thio)-7-(3,4-dimethoxyphenyl)-1-(4-fluorophenyl)-4,5,6,7-tetrahydro-1H-benzo[d]imidazole], the EC50 (usually the concentration needed to bring the measured effect to its halfway point) came out at 0.5 µM in assay [1] and 8.34 µM in assay [2].

As to `COCCOCCOCCOCCNC(=O)c1cc(F)c(CSc2nc3c(n2-c2ccc(F)cc2)C(c2cc(OC)c(OC)cc2Br)CCC3)c(F)c1` (stereo not drawn) [Example 68a, 4-(((7-(2-bromo-4,5-dimethoxyphenyl)-1-(4-fluorophenyl)-4,5,6,7-tetrahydro-1H-benzo[d]imidazol-2-yl)thio)methyl)-3,5-difluoro-N-(2,5,8,11-tetraoxatridecan-13-yl)benzamide], the EC50 in assay [1] was determined as 7.39 µM; in assay [2] it was 22 µM.

As to `COCCOCCOCCOCCNC(=O)c1cc(F)c(CSc2nc3c(n2-c2ccc(F)cc2)C(c2cc(OC)c(OC)c(Br)c2Br)CCC3)c(F)c1` (stereo not drawn) [Example 68b, 4-(((7-(2,3-dibromo-4,5-dimethoxyphenyl)-1-(4-fluorophenyl)-4,5,6,7-tetrahydro-1H-benzo[d]imidazol-2-yl)thio)methyl)-3,5-difluoro-N-(2,5,8,11-tetraoxatridecan-13-yl) benzamide], the concentration for a half-maximal effect (EC50) in assay [1] was 28.6 µM; in assay [2], over 50 µM.

Take `COc1ccc(C2CCCc3nc(SCc4c(F)cc(OCCN5CCCC5)cc4F)n(-c4ccc(F)cc4)c32)cc1OC` (stereo not drawn) [Example 69, 2-((2,6-difluoro-4-(2-(pyrrolidin-1-yl)ethoxy)benzyl)thio)-7-(3,4-dimethoxyphenyl)-1-(4-fluorophenyl)-4,5,6,7-tetrahydro-1H-benzo[d]imidazole]: the figures for the concentration giving a half-maximal response (EC50) in assay [1] and in assay [2] were 0.85 µM and 7.97 µM, respectively.

In the case of `COc1cccc(C2CCCc3nc(SCc4c(F)cncc4F)n(-c4ccc(F)cc4)c32)c1` (stereo not drawn) [Example 71, 2-(((3,5-difluoropyridin-4-yl)methyl)thio)-1-(4-fluorophenyl)-7-(3-methoxyphenyl)-4,5,6,7-tetrahydro-1H-benzo[d]imidazole], the EC50 in assay [1] was 1.91 µM; in assay [2] it was over 50 µM.

Turning to `COc1cccc(C2CCCc3nc(SCc4c(F)cncc4F)n(-c4ccc(F)c(OC)c4)c32)c1` (stereo not drawn) [Example 72, 2-(((3,5-difluoropyridin-4-yl)methyl)thio)-1-(4-fluoro-3-methoxyphen)-7-(3-methoxyphenyl)-4,5,6,7-tetrahydro-1H-benzo[d]imidazole], the values for the EC50 in assay [1] and in assay [2] were 0.91 µM and 35.2 µM, respectively.

With `COc1cc(C2CCCc3nc(SCc4c(F)cc(C#N)cc4F)n(-c4ccc(F)cc4)c32)ccc1F` (stereo not drawn) [Example 73, 3,5-difluoro-4-(((7-(4-fluoro-3-methoxyphenyl)-1-(4-fluorophenyl)-4,5,6,7-tetrahydro-1H-benzo[d]imidazol-2-yl)thio)methyl)benzonitrile], the 50% effective concentration (EC50) in assay [1] was 1.53 µM; in assay [2], 47.5 µM.

Take `COc1cc(C2CCCc3nc(SCc4c(F)cc(C(=O)O)cc4F)n(-c4ccc(F)cc4)c32)ccc1F` (stereo not drawn) [Example 74, 3,5-difluoro-4-(((7-(4-fluoro-3-methoxyphenyl)-1-(4-fluorophenyl)-4,5,6,7-tetrahydro-1H-benzo[d]imidazol-2-yl)thio)methyl)benzoic acid]: the EC50 in assay [1] is 1.1 µM; in assay [2], over 50 µM.

Turning to `COCCOCCOCCOCCNC(=O)c1cc(F)c(CSc2nc3c(n2-c2ccc(F)cc2)C(c2ccc(F)c(OC)c2)CCC3)c(F)c1` (stereo not drawn) [Example 75, 3,5-difluoro-4-(((7-(4-fluoro-3-methoxyphenyl)-1-(4-fluorophenyl)-4,5,6,7-tetrahydro-1H-benzo[d]imidazol-2-yl)thio)methyl)-N-(2,5,8,11-tetraoxatridecan-13-yl)benzamide], the results for the EC50 in assay [1] and in assay [2] were 2.76 µM and over 50 µM, respectively.

For `COc1cc(C2(C)CCCc3nc(SCc4c(F)cc(OCCN(C)C)cc4F)n(-c4ccc(F)cc4)c32)ccc1Cl` (stereo not drawn) [Example 80, 2-(4-((7-(4-chloro-3-methoxyphenyl)-1-(4-fluorophenyl)-4,5,6,7-tetrahydro-7-methyl-1H-benzo[d]imidazol-2-ylthio)methyl)-3,5-difluorophenoxy)-N,N-dimethylethanamine], the EC50 in assay [1] was found to be 2.94 µM; in assay [2], 19.2 µM.

On to `COc1cc(C2(C)CCCc3nc(SCc4c(F)cc(C(=O)O)cc4F)n(-c4ccc(F)cc4)c32)ccc1Cl` (stereo not drawn) [Example 81, 4-((7-(4-chloro-3-methoxyphenyl)-1-(4-fluorophenyl)-4,5,6,7-tetrahydro-7-methyl-1H-benzo[d]imidazol-2-ylthio)methyl)-3,5-difluorobenzoic acid trifluoroacetic acid], for which the EC50 was 1.75 µM in assay [1] and over 50 µM in assay [2].

Take `COC(=O)[C@H](CCCNC(=N)N)NC(=O)c1cc(F)c(CSc2nc3c(n2-c2ccc(F)cc2)C(C)(c2ccc(Cl)c(OC)c2)CCC3)c(F)c1` (stereo partly drawn) [Example 82, (S)-methyl 2-(4-((7-(4-chloro-3-methoxyphenyl)-1-(4-fluorophenyl)-4,5,6,7-tetrahydro-7-methyl-1H-benzo[d]imidazol-2-ylthio)methyl)-3,5-difluorobenzamido)-5-guanidinopentanoate trifluoroacetic acid]: the EC50 in assay [1] is 0.18 µM; in assay [2] it was 15.2 µM.

`COc1cc(C2(C)CCCc3nc(SCc4c(F)cc(C(=O)N[C@@H](CCCNC(=N)N)C(=O)O)cc4F)n(-c4ccc(F)cc4)c32)ccc1Cl` (stereo partly drawn) [Example 83, (S)-2-(4-((7-(4-chloro-3-methoxyphenyl)-1-(4-fluorophenyl)-4,5,6,7-tetrahydro-7-methyl-1H-benzo[d]imidazol-2-ylthio)methyl)-3,5-difluorobenzamido)-5-guanidinopentanoic acid trifluoroacetic acid]: the EC50 in assay [1] was determined as 0.13 µM; in assay [2], 17.2 µM.

For `COc1cc(C2(C)CCCc3nc(SCc4c(F)cc(C(=O)NCCOCCOCCOCCO)cc4F)n(-c4ccc(F)cc4)c32)ccc1Cl` (stereo not drawn) [Example 84, 4-((7-(4-chloro-3-methoxyphenyl)-1-(4-fluorophenyl)-7-methyl-4,5,6,7-tetrahydro-1H-benzo[d]imidazol-2-ylthio)methyl)-3,5-difluoro-N-(2-(2-(2-(2-hydroxyethoxy)ethoxy)ethoxy)ethyl)benzamide trifluoroacetic acid], the results for the EC50 in assay [1] and in assay [2] were 0.34 µM and 38.7 µM, respectively.

Turning to `COc1cc(C2(C)CCCc3nc(SCc4ncncc4Cl)n(-c4ccc(F)cc4)c32)ccc1Cl` (stereo not drawn) [Example 86, 7-(4-chloro-3-methoxyphenyl)-2-((5-chloropyrimidin-4-yl)methylthio)-1-(4-fluorophenyl)-7-methyl-4,5,6,7-tetrahydro-1H-benzo[d]imidazole trifluoroacetic acid], the EC50 was 2.22 µM in assay [1] and 27.1 µM in assay [2].

Take `COc1cc(C2(C)CCCc3nc(SCc4ccccc4)n(-c4ccc(F)cc4)c32)ccc1Cl` (stereo not drawn) [Example 87, 2-(benzylsulfanyl)-7-(4-chloro-3-methoxyphenyl)-1-(4-fluorophenyl)-7-methyl-4,5,6,7-tetrahydro-1H-1,3-benzodiazole]: the EC50 in assay [1] was 47.8 µM; in assay [2] it was over 50 µM.

On to `COc1cc(C2(C)CCCc3nc(SCc4ccncc4)n(-c4ccc(F)cc4)c32)ccc1Cl` (stereo not drawn) [Example 88], for which the results for the EC50 in assay [1] and in assay [2] were 4.78 µM and over 50 µM, respectively.

With `COc1cc(C2(C)CCCc3nc(SCc4c(F)cc(C#N)cc4F)n(-c4ccc(F)cc4)c32)ccc1Cl` (stereo not drawn) [Example 89, 4-((7-(4-chloro-3-methoxyphenyl)-1-(4-fluorophenyl)-7-methyl-4,5,6,7-tetrahydro-1H-benzo[d]imidazol-2-ylthio)methyl)-3,5-difluorobenzonitrile trifluoroacetic acid], the EC50 in assay [1] is 2.08 µM; in assay [2] it was over 50 µM.
